Measured values as given in patent US8324380B2, “Amino-heteroaryl-containing prokineticin 1 receptor antagonists” (Janssen Pharmaceutica NV, priority 2007, dated 2012).
Values joined by “and” are separate entries in the source; they are usually repeats but may differ in a detail not shown here. Identical values can stand only once. Like-named read-outs stand apart in the source and are kept apart here.

Target: T1, GPR73 (prokineticin 1 receptor) (Homo sapiens, UniProt Q8TCW9)
T1 construct: expressed in transfected cells; host or cells: HEK 293
T1 sequence (Q8TCW9 whole entry, species assumed): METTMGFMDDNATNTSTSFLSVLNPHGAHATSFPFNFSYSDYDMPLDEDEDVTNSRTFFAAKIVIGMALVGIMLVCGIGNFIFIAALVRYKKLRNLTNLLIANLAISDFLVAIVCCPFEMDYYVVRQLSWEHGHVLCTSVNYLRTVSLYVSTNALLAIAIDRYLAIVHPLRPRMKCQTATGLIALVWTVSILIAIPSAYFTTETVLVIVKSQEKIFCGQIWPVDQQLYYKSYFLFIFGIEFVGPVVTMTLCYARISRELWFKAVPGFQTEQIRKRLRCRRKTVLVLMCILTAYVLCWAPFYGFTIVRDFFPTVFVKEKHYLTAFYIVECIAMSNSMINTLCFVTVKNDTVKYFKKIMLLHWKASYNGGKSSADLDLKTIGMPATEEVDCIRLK
Assay: PK1 functional assay: Ca2+ mobilization on the FLIPR
Assay type: cell-based
Settings: for inhibition at 10 µM: read-out: Ca^2+ Mobilization % Inh @10 µM; for IC50: HEK 293 GPR73 cells, read-out: Ca^2+ Mobilization IC50
Description: At a time of 24 h prior to running the assay, in cell culture media (DMEM containing high Glucose and L-glutamine, 10% FBS, 1% Pen/Streptomycin, 1% Sodium Pyruvate, 20 mM HEPES, Zeocin 200 mg/L), 100 µL of 1.3*10^6/ml HEK 293 GPR73 (prokineticin 1 receptor) expressing cells were plated in a 96 well poly-d-lysine coated plate (Costar), and incubated at 37° C. and 5% CO2. On the day in which the assay was run, the media was removed and 200 µL of 5× Calcium Plus Dye (Molecular Devices) which was previously resuspended with 200 mL of assay buffer [HBSS w/Ca^2+ and Mg^2+ w/o phenol red, 20 mM HEPES, 0.1% BSA, 10 mL probenecid (710 mg probenecid in 5 mL of 1N NaOH, to which was then added 5 mL HBSS containing 20 mM HEPES)] was added to each well of the 96-well plate. The plate was incubated at 37° C. and 5% CO2 for 30 min in dark. The plate was removed and allowed to reach RT for 15 min in the dark. The assay was then run on the FLIPR. In Brief: base line read for 1 min, compound added (25 μL) and incubated for 4 min, 15 seconds, PK1 ligand preparation added (25 μL) for a final concentration of a previously determined EC50 and fluorescence was counted for 1 min, 45 seconds. Baseline is described as the amount of relative fluorescence read when buffer alone is added to cells. Baseline was subtracted from all wells. Percent of control was calculated as follows: (Baseline subtracted well value is divided by baseline subtracted max value)*100. Percent inhibition is 100 minus the percent of control value.
The IC50 is defined as the amount of a given compound required to inhibit 50% of the maximum signal that is generated by the concentration of PK1 preparation used in our assay. IC50 values were calculated using GraphPad Prism.

Structure (SMILES)	inhibition at 10 µM (10 µM) [%]	IC50	inhibition at 10 µM (10 µM, (further determination)) [%]	IC50 (IC50 (further determination)) [nM]
NC1=Nc2ccccc2CN1CCNc1nc(=O)n(Cc2ccc(F)cc2)c(=O)n1Cc1ccc(OC(F)(F)F)cc1 [Cpd 47]	100	123 nM		
NC1=Nc2cccc(Cl)c2CN1CCNc1nc(=O)n(Cc2ccc(F)cc2)c(=O)n1Cc1ccc(OC(F)(F)F)cc1 [Cpd 48]	101	116 nM		
NC1=Nc2ccc(Cl)cc2CN1CCNc1nc(=O)n(Cc2ccc(F)cc2)c(=O)n1Cc1ccc(OC(F)(F)F)cc1 [Cpd 49]	103	233 nM		
NC1=Nc2cc(Cl)ccc2CN1CCNc1nc(=O)n(Cc2ccc(F)cc2)c(=O)n1Cc1ccc(OC(F)(F)F)cc1 [Cpd 50]	99	332 nM		
NC1=Nc2ccc(F)cc2CN1CCNc1nc(=O)n(Cc2ccc(F)cc2)c(=O)n1Cc1ccc(OC(F)(F)F)cc1 [Cpd 51]	99	996 nM		
NC1=Nc2cc(F)ccc2CN1CCNc1nc(=O)n(Cc2ccc(F)cc2)c(=O)n1Cc1ccc(OC(F)(F)F)cc1 [Cpd 52]	104	359 nM		
Nc1ncc(CCNc2nc(=O)n(Cc3ccc(F)cc3)c(=O)n2Cc2ccc(OC(F)F)cc2)[nH]1 [Cpd 53]	93	36 nM	100	15
Nc1ncc(CCNc2nc(=O)n(Cc3ccc(F)cc3)c(=O)n2Cc2ccc(OC(F)(F)F)cc2)[nH]1 [Cpd 54, 6-[2-(2-Amino-3H-imidazol-4-yl)-ethylamino]-3-(4-fluoro-benzyl)-1-(4-trifluoromethoxy-benzyl)-1H-[1,3,5]triazine-2,4-dione]	96	27 nM and 183 nM	95	97
COc1cccc2c1nc(N)n2CCNc1nc(=O)n(Cc2ccc(F)cc2)c(=O)n1Cc1ccc(OC(F)F)cc1 [Cpd 55]	91	233 nM		
NC1=Nc2ccc(O)cc2CN1CCNc1nc(=O)n(Cc2ccc(F)cc2)c(=O)n1Cc1ccc(OC(F)F)cc1 [Cpd 56]	100	161 nM		
COc1ccc2c(c1)N=C(N)N(CCNc1nc(=O)n(Cc3ccc(F)cc3)c(=O)n1Cc1ccc(OC(F)F)cc1)C2 [Cpd 57]	95	144 nM		
COc1ccc(Cn2c(NCCc3cnc(N)[nH]3)nc(=O)n(Cc3ccc(Cl)c(Cl)c3)c2=O)cc1 [Cpd 59]	96	49 nM		
CCc1ccc(Cn2c(=O)nc(NCCc3cnc(N)[nH]3)n(Cc3ccc(OC)cc3)c2=O)cc1 [Cpd 60]	85	295 nM		
COc1ccc(Cn2c(NCCc3cnc(N)[nH]3)nc(=O)n(Cc3ccc(SC)cc3)c2=O)cc1 [Cpd 61]	101	21 nM	102	19
COc1ccc(Cn2c(NCCc3cnc(N)[nH]3)nc(=O)n(Cc3ccc4c(c3)CCO4)c2=O)cc1 [Cpd 62]	97	241 nM		
Nc1ncc(CCNc2nc(=O)n(Cc3ccc(Cl)c(Cl)c3)c(=O)n2Cc2ccc3c(c2)CCO3)[nH]1 [Cpd 63]	54	2010 nM		
CSc1ccc(Cn2c(=O)nc(NCCc3cnc(N)[nH]3)n(Cc3ccc4c(c3)CCO4)c2=O)cc1 [Cpd 64]	93	170 nM		
CCc1ccc(Cn2c(=O)nc(NCCc3cnc(N)[nH]3)n(Cc3ccc4c(c3)CCO4)c2=O)cc1 [Cpd 65]	35	> 10000 nM		
Nc1ncc(CCNc2nc(=O)n(Cc3ccc4c(c3)CCO4)c(=O)n2Cc2ccc3c(c2)CCO3)[nH]1 [Cpd 66]	69	2420 nM		
COc1ccc(Cn2c(NCCc3cnc(N)[nH]3)nc(=O)n(Cc3ccc4c(c3)nnn4C)c2=O)cc1 [Cpd 67]	93	171 nM		

Structure (SMILES)	inhibition at 10 µM (10 µM) [%]	IC50	inhibition at 10 µM (10 µM, (further determination)) [%]	IC50 (IC50 (further determination)) [nM]
Cn1nnc2cc(Cn3c(=O)nc(NCCc4cnc(N)[nH]4)n(Cc4ccc5c(c4)CCO5)c3=O)ccc21 [Cpd 68]	78	1410 nM		
COc1ccc(Cn2c(NCCn3c(N)nc4ccccc43)nc(=O)n(Cc3ccc(Cl)c(Cl)c3)c2=O)cc1 [Cpd 69]	102	66 nM		
COc1ccc(Cn2c(NCCn3c(N)nc4ccccc43)nc(=O)n(Cc3ccc(SC)cc3)c2=O)cc1 [Cpd 70]	103	22 nM		
CCc1ccc(Cn2c(=O)nc(NCCn3c(N)nc4ccccc43)n(Cc3ccc(OC)cc3)c2=O)cc1 [Cpd 71]	101	90 nM		
COc1ccc(Cn2c(NCCn3c(N)nc4ccccc43)nc(=O)n(Cc3ccc4c(c3)CCO4)c2=O)cc1 [Cpd 72]	102	58 nM		
Nc1nc2ccccc2n1CCNc1nc(=O)n(Cc2ccc(Cl)c(Cl)c2)c(=O)n1Cc1ccc2c(c1)CCO2 [Cpd 73]	90	186 nM		
CSc1ccc(Cn2c(=O)nc(NCCn3c(N)nc4ccccc43)n(Cc3ccc4c(c3)CCO4)c2=O)cc1 [Cpd 74]	102	34 nM		
CCc1ccc(Cn2c(=O)nc(NCCn3c(N)nc4ccccc43)n(Cc3ccc4c(c3)CCO4)c2=O)cc1 [Cpd 75]	83	507 nM		
Nc1nc2ccccc2n1CCNc1nc(=O)n(Cc2ccc3c(c2)CCO3)c(=O)n1Cc1ccc2c(c1)CCO2 [Cpd 76]	97	225 nM		
COc1ccc(Cn2c(NCCn3c(N)nc4ccccc43)nc(=O)n(Cc3ccc4c(c3)nnn4C)c2=O)cc1 [Cpd 77]	99	55 nM		
Cn1nnc2cc(Cn3c(=O)nc(NCCn4c(N)nc5ccccc54)n(Cc4ccc5c(c4)CCO5)c3=O)ccc21 [Cpd 78]	102	66 nM	104	130
Nc1ncc(CCNc2nc(=O)n(Cc3ccc(Cl)c(Cl)c3)c(=O)n2Cc2ccc(OC(F)F)cc2)[nH]1 [Cpd 79]	96	102 nM		
CSc1ccc(Cn2c(=O)nc(NCCc3cnc(N)[nH]3)n(Cc3ccc(OC(F)F)cc3)c2=O)cc1 [Cpd 80]	98	32 nM		
CCc1ccc(Cn2c(=O)nc(NCCc3cnc(N)[nH]3)n(Cc3ccc(OC(F)F)cc3)c2=O)cc1 [Cpd 81]	90	502 nM		
Nc1ncc(CCNc2nc(=O)n(Cc3ccc4c(c3)CCO4)c(=O)n2Cc2ccc(OC(F)F)cc2)[nH]1 [Cpd 82]	96	202 nM		
Cn1nnc2cc(Cn3c(=O)nc(NCCc4cnc(N)[nH]4)n(Cc4ccc(OC(F)F)cc4)c3=O)ccc21 [Cpd 83]	98	224 nM		
Nc1nc2ccccc2n1CCNc1nc(=O)n(Cc2ccc(Cl)c(Cl)c2)c(=O)n1Cc1ccc(OC(F)F)cc1 [Cpd 84]	97	345 nM		
CSc1ccc(Cn2c(=O)nc(NCCn3c(N)nc4ccccc43)n(Cc3ccc(OC(F)F)cc3)c2=O)cc1 [Cpd 85]	99	157 nM		
CCc1ccc(Cn2c(=O)nc(NCCn3c(N)nc4ccccc43)n(Cc3ccc(OC(F)F)cc3)c2=O)cc1 [Cpd 86]	94	337 nM		
Nc1nc2ccccc2n1CCNc1nc(=O)n(Cc2ccc3c(c2)CCO3)c(=O)n1Cc1ccc(OC(F)F)cc1 [Cpd 87]	102	223 nM		
